Measurements: PubChem BioAssay AID2060509 (Molecular Pharmacology Branch, DTP, NCI, 2025)

System: 485176-168-R4-J1-PDC spheroids with HUVEC/MSC, viability
Experiment: Anticancer human tumor 485176-168-R4-J1-PDC patient-derived pancreatic adenocarcinoma cell line growth inhibition [GQUAD]
Conditions: for IC50: curve of first compound; for viability, T/C: stronger effect = lower value
Procedure, shortened: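 Tumor cells were grown as complex spheroids with HUVEC endothelial cells and mesenchymal stem cells as stroma. G-quadruplex stabilizers were combined with targeted agents over half-log dilutions from near the clinical Cmax, or from 10 microM.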

[1] = second compound 0.0316 µM, first compound 0.0316 µM
[2] = second compound 0.0316 µM, first compound 0.1 µM
[3] = second compound 0.0316 µM, first compound 0.316 µM
[4] = second compound 0.0316 µM, first compound 1 µM
[5] = second compound 0.0316 µM, first compound 3.16 µM
[6] = second compound 0.0316 µM, first compound 10 µM
[7] = second compound 0.1 µM, first compound 0.0316 µM
[8] = second compound 0.1 µM, first compound 0.1 µM
[9] = second compound 0.1 µM, first compound 0.316 µM
[10] = second compound 0.1 µM, first compound 1 µM
[11] = second compound 0.1 µM, first compound 3.16 µM
[12] = second compound 0.1 µM, first compound 10 µM
[13] = second compound 0.316 µM, first compound 0.0316 µM
[14] = second compound 0.316 µM, first compound 0.1 µM
[15] = second compound 0.316 µM, first compound 0.316 µM
[16] = second compound 0.316 µM, first compound 1 µM
[17] = second compound 0.316 µM, first compound 3.16 µM
[18] = second compound 0.316 µM, first compound 10 µM
[19] = second compound 1 µM, first compound 0.0316 µM
[20] = second compound 1 µM, first compound 0.1 µM
[21] = second compound 1 µM, first compound 0.316 µM
[22] = second compound 1 µM, first compound 1 µM
[23] = second compound 1 µM, first compound 3.16 µM
[24] = second compound 1 µM, first compound 10 µM
[25] = second compound 3.16 µM, first compound 0.0316 µM
[26] = second compound 3.16 µM, first compound 0.1 µM
[27] = second compound 3.16 µM, first compound 0.316 µM
[28] = second compound 3.16 µM, first compound 1 µM
[29] = second compound 3.16 µM, first compound 3.16 µM
[30] = second compound 3.16 µM, first compound 10 µM
[31] = second compound 10 µM, first compound 0.0316 µM
[32] = second compound 10 µM, first compound 0.1 µM
[33] = second compound 10 µM, first compound 0.316 µM
[34] = second compound 10 µM, first compound 1 µM
[35] = second compound 10 µM, first compound 3.16 µM
[36] = second compound 10 µM, first compound 10 µM
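Note: spheroids exposed to compounds for seven days before readout.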
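Throughout, for viability, T/C: percent viability relative to DMSO vehicle control wells as 100%.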

Structure (SMILES): CCCS(=O)(=O)Nc1ccc(F)c(C(=O)c2c[nH]c3ncc(-c4ccc(Cl)cc4)cc23)c1F + Cc1[nH]c2ccc(F)cc2c1-c1nc2c3cccnc3c3ncccc3c2[nH]1
- IC50 (second compound 0.0316 µM): > 10000 nM
- IC50 (second compound 0.1 µM): > 10000 nM
- IC50 (second compound 0.316 µM): > 10000 nM
- IC50 (second compound 1 µM): > 10000 nM
- IC50 (second compound 3.16 µM): > 10000 nM
- IC50 (second compound 10 µM): > 10000 nM
- viability, T/C [1]: 95%
- viability, T/C [2]: 93.6%
- viability, T/C [3]: 96.1%
- viability, T/C [4]: 94.8%
- viability, T/C [5]: 116%
- viability, T/C [6]: 75.5%
- viability, T/C [7]: 84.8%
- viability, T/C [8]: 102%
- viability, T/C [9]: 87.8%
- viability, T/C [10]: 86.1%
- viability, T/C [11]: 99.1%
- viability, T/C [12]: 71.2%
- viability, T/C [13]: 105%
- viability, T/C [14]: 86.1%
- viability, T/C [15]: 90.7%
- viability, T/C [16]: 82.9%
- viability, T/C [17]: 80.1%
- viability, T/C [18]: 67.2%
- viability, T/C [19]: 87.2%
- viability, T/C [20]: 85.2%
- viability, T/C [21]: 76.7%
- viability, T/C [22]: 84.2%
- viability, T/C [23]: 77.5%
- viability, T/C [24]: 69.5%
- viability, T/C [25]: 104%
- viability, T/C [26]: 88.6%
- viability, T/C [27]: 89%
- viability, T/C [28]: 72.1%
- viability, T/C [29]: 84%
- viability, T/C [30]: 63.5%
- viability, T/C [31]: 84.9%
- viability, T/C [32]: 91%
- viability, T/C [33]: 88.4%
- viability, T/C [34]: 74.9%
- viability, T/C [35]: 66.6%
- viability, T/C [36]: 51.7%

Structure (SMILES): COc1ncnc(C2CC2)c1-c1ncc2cnn(Cc3ccc(-c4nc(C(F)(F)F)cn4C(C)C)cc3)c2n1 + Cc1[nH]c2ccc(F)cc2c1-c1nc2c3cccnc3c3ncccc3c2[nH]1
- IC50 (second compound 0.0316 µM): > 10000 nM
- IC50 (second compound 0.1 µM): > 10000 nM
- IC50 (second compound 0.316 µM): > 10000 nM
- IC50 (second compound 1 µM): > 10000 nM
- IC50 (second compound 3.16 µM): > 10000 nM
- IC50 (second compound 10 µM): > 10000 nM
- viability, T/C [1]: 118%
- viability, T/C [2]: 81.8%
- viability, T/C [3]: 101%
- viability, T/C [4]: 105%
- viability, T/C [5]: 104%
- viability, T/C [6]: 94.2%
- viability, T/C [7]: 101%
- viability, T/C [8]: 106%
- viability, T/C [9]: 102%
- viability, T/C [10]: 102%
- viability, T/C [11]: 102%
- viability, T/C [12]: 110%
- viability, T/C [13]: 91%
- viability, T/C [14]: 85.4%
- viability, T/C [15]: 107%
- viability, T/C [16]: 92.4%
- viability, T/C [17]: 110%
- viability, T/C [18]: 110%
- viability, T/C [19]: 84.9%
- viability, T/C [20]: 106%
- viability, T/C [21]: 118%
- viability, T/C [22]: 108%
- viability, T/C [23]: 115%
- viability, T/C [24]: 97%
- viability, T/C [25]: 88.4%
- viability, T/C [26]: 90.7%
- viability, T/C [27]: 104%
- viability, T/C [28]: 93.8%
- viability, T/C [29]: 93%
- viability, T/C [30]: 80.5%
- viability, T/C [31]: 90.3%
- viability, T/C [32]: 97%
- viability, T/C [33]: 83.5%
- viability, T/C [34]: 90.9%
- viability, T/C [35]: 96.9%
- viability, T/C [36]: 84.6%

Structure (SMILES): Cc1[nH]c2ccccc2c1CCNCc1ccc(/C=C/C(=O)NO)cc1 + Cc1[nH]c2ccc(F)cc2c1-c1nc2c3cccnc3c3ncccc3c2[nH]1
- IC50 (second compound 0.0316 µM): 158 nM
- IC50 (second compound 0.1 µM): 163 nM
- IC50 (second compound 0.316 µM): 170 nM
- IC50 (second compound 1 µM): 164 nM
- IC50 (second compound 3.16 µM): 129 nM
- IC50 (second compound 10 µM): 150 nM
- viability, T/C (second compound 0.0316 µM, first compound 0.000999 µM): 99.1%
- viability, T/C (second compound 0.0316 µM, first compound 0.00316 µM): 106%
- viability, T/C (second compound 0.0316 µM, first compound 0.00999 µM): 96.3%
- viability, T/C [1]: 97%
- viability, T/C (second compound 0.0316 µM, first compound 0.0999 µM): 77.1%
- viability, T/C [3]: 9.63%
- viability, T/C (second compound 0.1 µM, first compound 0.000999 µM): 105%
- viability, T/C (second compound 0.1 µM, first compound 0.00316 µM): 104%
- viability, T/C (second compound 0.1 µM, first compound 0.00999 µM): 89.5%
- viability, T/C [7]: 89%
- viability, T/C (second compound 0.1 µM, first compound 0.0999 µM): 78.7%
- viability, T/C [9]: 15.7%
- viability, T/C (second compound 0.316 µM, first compound 0.000999 µM): 103%
- viability, T/C (second compound 0.316 µM, first compound 0.00316 µM): 89.9%
- viability, T/C (second compound 0.316 µM, first compound 0.00999 µM): 80%
- viability, T/C [13]: 82.4%
- viability, T/C (second compound 0.316 µM, first compound 0.0999 µM): 81.3%
- viability, T/C [15]: 15.3%
- viability, T/C (second compound 1 µM, first compound 0.000999 µM): 82.4%
- viability, T/C (second compound 1 µM, first compound 0.00316 µM): 89.7%
- viability, T/C (second compound 1 µM, first compound 0.00999 µM): 95%
- viability, T/C [19]: 89.3%
- viability, T/C (second compound 1 µM, first compound 0.0999 µM): 72.8%
- viability, T/C [21]: 19.7%
- viability, T/C (second compound 3.16 µM, first compound 0.000999 µM): 79.5%
- viability, T/C (second compound 3.16 µM, first compound 0.00316 µM): 93%
- viability, T/C (second compound 3.16 µM, first compound 0.00999 µM): 80%
- viability, T/C [25]: 74.3%
- viability, T/C (second compound 3.16 µM, first compound 0.0999 µM): 61%
- viability, T/C [27]: 15.5%
- viability, T/C (second compound 10 µM, first compound 0.000999 µM): 85.8%
- viability, T/C (second compound 10 µM, first compound 0.00316 µM): 93.7%
- viability, T/C (second compound 10 µM, first compound 0.00999 µM): 88.6%
- viability, T/C [31]: 68.4%
- viability, T/C (second compound 10 µM, first compound 0.0999 µM): 73.2%
- viability, T/C [33]: 18.8%

Structure (SMILES): O=C(NO)c1cnc(N2CCN(S(=O)(=O)c3ccc4ccccc4c3)CC2)nc1 + Cc1[nH]c2ccc(F)cc2c1-c1nc2c3cccnc3c3ncccc3c2[nH]1
- IC50 (second compound 0.0316 µM): 511 nM
- IC50 (second compound 0.1 µM): 597 nM
- IC50 (second compound 0.316 µM): 557 nM
- IC50 (second compound 1 µM): 592 nM
- IC50 (second compound 3.16 µM): 1030 nM
- IC50 (second compound 10 µM): 1020 nM
- viability, T/C [1]: 94.1%
- viability, T/C [2]: 86.3%
- viability, T/C [3]: 70.8%
- viability, T/C [4]: 21.8%
- viability, T/C [5]: 0.24%
- viability, T/C [6]: 0.23%
- viability, T/C [7]: 90.3%
- viability, T/C [8]: 98.4%
- viability, T/C [9]: 80.4%
- viability, T/C [10]: 25.1%
- viability, T/C [11]: 0.3%
- viability, T/C [12]: 0.19%
- viability, T/C [13]: 122%
- viability, T/C [14]: 87.5%
- viability, T/C [15]: 67.1%
- viability, T/C [16]: 42.8%
- viability, T/C [17]: 0.2%
- viability, T/C [18]: 0.18%
- viability, T/C [19]: 94.2%
- viability, T/C [20]: 84.7%
- viability, T/C [21]: 68%
- viability, T/C [22]: 37.6%
- viability, T/C [23]: 0.32%
- viability, T/C [24]: 0.18%
- viability, T/C [25]: 87.9%
- viability, T/C [26]: 79.9%
- viability, T/C [27]: 73.5%
- viability, T/C [28]: 52.3%
- viability, T/C [29]: 0.29%
- viability, T/C [30]: 0.21%
- viability, T/C [31]: 88.2%
- viability, T/C [32]: 71.7%
- viability, T/C [33]: 75.6%
- viability, T/C [34]: 50.9%
- viability, T/C [35]: 0.27%
- viability, T/C [36]: 0.37%
